Measured values published in patent US12077503B2, “Substituted cyclic amides and their use as herbicides” (FMC CORPORATION, priority 2015, dated 2024).

Experiments:
Type in all cases: in vivo
Kochia (Kochia scoparia) [1] = assay: Test A preemergence; details: Bassia scoparia, pre-emergence, 240 h; for pest or weed control at 125 g/ha: 125 g ai/ha, Preemergence, visual injury rating after approximately 10 d, read-out: Kochia plant response rating (0 to 100 scale, 0 is no effect, 100 is complete control); for pest or weed control at 500 g/ha: 500 g ai/ha, preemergence, visual injury rating about 10 d after treatment, 0 to 100 scale (0 no effect, 100 complete control), read-out: Kochia plant response rating
Outline: (§1)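 Preemergence soil spray on seeded pots or post-emergence spray on 1–2 leaf plants, in loam–sand blend. Greenhouse ~10 d. Visual rating 0–100 against untreated plants.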

[2] = test system: ragweed (common ragweed, Ambrosia elatior); assay: Test A preemergence; details: Ambrosia artemisiifolia, pre-emergence, 240 h; for pest or weed control at 125 g/ha: 125 g ai/ha, Preemergence, visual injury rating after approximately 10 d, read-out: Ragweed plant response rating (0 to 100 scale, 0 is no effect, 100 is complete control); for pest or weed control at 500 g/ha: 500 g ai/ha, preemergence, visual injury rating about 10 d after treatment, 0 to 100 scale (0 no effect, 100 complete control), read-out: Ragweed plant response rating
Outline: as §1

[3] = test system: giant foxtail (Setaria faberii); assay: Test A preemergence; details: Setaria faberi, pre-emergence, 240 h; for pest or weed control at 125 g/ha: 125 g ai/ha, Preemergence, visual injury rating after approximately 10 d, read-out: Foxtail, Giant plant response rating (0 to 100 scale, 0 is no effect, 100 is complete control); for pest or weed control at 500 g/ha: 500 g ai/ha, preemergence, visual injury rating about 10 d after treatment, 0 to 100 scale (0 no effect, 100 complete control), read-out: Foxtail, Giant plant response rating
Outline: as §1

[4] = test system: barnyardgrass (Echinochloa crus-galli); assay: Test A preemergence; details: Echinochloa crus-galli, pre-emergence, 240 h; for pest or weed control at 125 g/ha: 125 g ai/ha, Preemergence, visual injury rating after approximately 10 d, read-out: Barnyardgrass plant response rating (0 to 100 scale, 0 is no effect, 100 is complete control); for pest or weed control at 500 g/ha: 500 g ai/ha, preemergence, visual injury rating about 10 d after treatment, 0 to 100 scale (0 no effect, 100 complete control), read-out: Barnyardgrass plant response rating
Outline: as §1

[5] = test system: pigweed (Amaranthus retroflexus); assay: Test A preemergence; details: Amaranthus retroflexus, pre-emergence, 240 h; for pest or weed control at 125 g/ha: 125 g ai/ha, Preemergence, visual injury rating after approximately 10 d, read-out: Pigweed plant response rating (0 to 100 scale, 0 is no effect, 100 is complete control); for pest or weed control at 500 g/ha: 500 g ai/ha, preemergence, visual injury rating about 10 d after treatment, 0 to 100 scale (0 no effect, 100 complete control), read-out: Pigweed plant response rating
[6] = test system: ryegrass, Italian (Italian ryegrass, Lolium multiflorum); assay: Test A preemergence; details: Lolium multiflorum, pre-emergence, 240 h; for pest or weed control at 125 g/ha: 125 g ai/ha, Preemergence, visual injury rating after approximately 10 d, read-out: Ryegrass, Italian plant response rating (0 to 100 scale, 0 is no effect, 100 is complete control); for pest or weed control at 500 g/ha: 500 g ai/ha, preemergence, visual injury rating about 10 d after treatment, 0 to 100 scale (0 no effect, 100 complete control), read-out: Ryegrass, Italian plant response rating
Outline: as §1

rice (Oryra sativa) = assay: Test B flooded paddy test; details: Oryza sativa, 250 g ai/ha, Flood; 0 to 100 scale where 0 is no effect and 100 is complete control; read-out: Rice plant response rating
Outline: (§2)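 Visual ratings (0 none to 100 complete control) are relative to untreated plants, taken 13–15 d after treatment in a greenhouse. Test material went straight into floodwater standing 3 cm above the soil, kept constant, on plants at the 2-leaf stage.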

[7] = test system: ducksalad (Heteranthera limosa); assay: Test B flooded paddy test; details: Heteranthera limosa, 250 g ai/ha, Flood; 0 to 100 scale where 0 is no effect and 100 is complete control; read-out: Ducksalad plant response rating
Outline: as §2

[8] = test system: barnyardgrass (Echinochloa crus-galli); assay: Test B flooded paddy test; details: Echinochloa crus-galli, 250 g ai/ha, Flood; 0 to 100 scale where 0 is no effect and 100 is complete control; read-out: Barnyardgrass plant response rating
Outline: as §2

[9] = test system: sedge, umbrella (small-flower umbrella sedge, Cyperus difformis); assay: Test B flooded paddy test; details: Cyperus difformis, 250 g ai/ha, Flood; 0 to 100 scale where 0 is no effect and 100 is complete control; read-out: Sedge, Umbrella plant response rating
Outline: as §2

Kochia (Kochia scoparia) [10] = assay: Test A postemergence; details: Bassia scoparia, post-emergence, 240 h, postemergence, approx. 10 d; for pest or weed control at 125 g/ha: 125 g ai/ha, visual injury on 0 to 100 scale (0 no effect, 100 complete control), read-out: Kochia plant response rating; for pest or weed control at 500 g/ha: 500 g ai/ha, visual injury, 0 to 100 scale (0 no effect, 100 complete control), read-out: Plant response rating, Kochia
Outline: as §1

[11] = test system: giant foxtail (Setaria faberii); assay: Test A postemergence; details: Setaria faberi, post-emergence, 240 h, postemergence, approx. 10 d; for pest or weed control at 125 g/ha: 125 g ai/ha, visual injury on 0 to 100 scale (0 no effect, 100 complete control), read-out: Foxtail, Giant plant response rating; for pest or weed control at 500 g/ha: 500 g ai/ha, visual injury, 0 to 100 scale (0 no effect, 100 complete control), read-out: Plant response rating, Foxtail, Giant
Outline: as §1

[12] = test system: barnyardgrass (Echinochloa crus-galli); assay: Test A postemergence; details: Echinochloa crus-galli, post-emergence, 240 h, read-out: Plant response rating, Barnyardgrass; for pest or weed control at 125 g/ha: 125 g ai/ha, Postemergence, visual injury after approximately 10 d, 0 to 100 scale where 0 is no effect and 100 is complete control; for pest or weed control at 500 g/ha: 500 g ai/ha, postemergence, visual injury, 0 to 100 scale (0 no effect, 100 complete control), approx. 10 d
Outline: as §1

[13] = test system: wheat (Triticum aestivum); assay: Test A postemergence; details: Triticum aestivum, post-emergence, 240 h, postemergence, approx. 10 d; for plant injury at 125 g/ha: 125 g ai/ha, visual injury on 0 to 100 scale (0 no effect, 100 complete control), read-out: Wheat plant response rating; for plant injury at 500 g/ha: 500 g ai/ha, visual injury, 0 to 100 scale (0 no effect, 100 complete control), read-out: Plant response rating, Wheat
Outline: as §1

Row | Compound | pest or weed control at 125 g/ha (Kochia (Kochia scoparia) [1]) [%] | pest or weed control at 500 g/ha (Kochia (Kochia scoparia) [1]) [%] | pest or weed control at 500 g/ha [2] [%] | pest or weed control at 125 g/ha [3] [%] | pest or weed control at 500 g/ha [3] [%] | pest or weed control at 125 g/ha [4] [%] | pest or weed control at 500 g/ha [4] [%] | pest or weed control at 125 g/ha [5] [%] | pest or weed control at 500 g/ha [5] [%] | pest or weed control at 500 g/ha [6] [%] | pest or weed control at 250 g/ha (rice (Oryra sativa)) [%] | pest or weed control at 250 g/ha [7] [%] | pest or weed control at 250 g/ha [8] [%] | pest or weed control at 250 g/ha [9] [%] | pest or weed control at 125 g/ha (Kochia (Kochia scoparia) [10]) [%] | pest or weed control at 500 g/ha (Kochia (Kochia scoparia) [10]) [%] | pest or weed control at 125 g/ha [11] [%] | pest or weed control at 500 g/ha [11] [%] | pest or weed control at 125 g/ha [12] [%] | pest or weed control at 500 g/ha [12] [%] | other results
1 | CC(C)COc1cccc([C@H]2CN(C)C(=O)[C@@H]2C(=O)Nc2ccc(F)cc2F)c1 [Compound 1030] | 0 | 70 | 0 | 90 | 90 | 70 | 90 | 0 | 0 | 70 | 0 | 70 | 30 | 0 | 0 | 0 | 70 | 90 | 70 | 90 | pest or weed control at 125 g/ha [2]: 0%; pest or weed control at 125 g/ha [6]: 70%; plant injury at 125 g/ha [13]: 30%; plant injury at 500 g/ha [13]: 60%
2 | O=C(Nc1ccccc1F)[C@H]1C(=O)N(C2CC2)CC[C@@H]1c1ccccc1 [Compound 1031] | 0 | 0 | 0 | 0 | 0 | 0 | 0 | 0 | 0 | 0 | 0 | 0 | 0 | 0 | 0 | 0 | 0 | 0 | 0 | 0 | pest or weed control at 125 g/ha [2]: 0%; pest or weed control at 125 g/ha [6]: 0%; plant injury at 125 g/ha [13]: 0%; plant injury at 500 g/ha [13]: 0%
3 | Cc1ccc([C@H]2CNC(=O)[C@@H]2C(=O)Nc2ccccc2F)cc1C [Compound 1033] | 0 | 60 | 10 | 70 | 90 | 90 | 90 | 0 | 0 | 50 | 0 | 100 | 50 | 0 | 0 | 0 | 30 | 80 | 90 | 90 | pest or weed control at 125 g/ha [2]: 0%; pest or weed control at 125 g/ha [6]: 0%; plant injury at 125 g/ha [13]: 0%; plant injury at 500 g/ha [13]: 0%
4 | Cc1ccc([C@H]2CNC(=O)[C@@H]2C(=O)Nc2cccc(F)c2C)cc1C [Compound 1035] | 0 | 50 | 70 | 90 | 90 | 90 | 90 | 0 | 0 | 70 | 0 | 100 | 50 | 0 | 0 | 20 | 50 | 90 | 90 | 90 | pest or weed control at 125 g/ha [2]: 20%; plant injury at 125 g/ha [13]: 20%; plant injury at 500 g/ha [13]: 70%
5 | Cc1cc([C@H]2CNC(=O)[C@@H]2C(=O)Nc2cccc(F)c2F)ccc1C(F)(F)F [Compound 1040] | 50 | 80 | 80 | 90 | 90 | 90 | 90 | 30 | 40 | 50 | 0 | 75 | 60 | 0 | 60 | 70 | 80 | 90 | 80 | 90 | pest or weed control at 125 g/ha [6]: 50%; plant injury at 125 g/ha [13]: 20%
